According to US8455491B2, “6-cycloamino-3-(pyridazin-4-yl)imidazo[1,2-b]pyridazine and derivatives and pharmaceutical compositions comprising the same” (Sanofi, priority 2007, dated 2013):

Tests used:
[1] = tested on: Mper1-luc Rat-1 (P2C4) fibroblasts; test: Circadian cell assay (mPer1-luciferase reporter, period prolongation); type: cell-based; conditions: effective concentration that induced a 1-hour prolongation of the circadian period, interpolated from hyperbolic curve
Experimental: Experimental Protocols for Circadian Cell Assay
Mper1-luc Rat-1 (P2C4) fibroblast cultures were prepared by dividing the cultures every 3-4 days (approximately 10-20% of confluence) on 150 cm^2 degassed polystyrene tissue culture flasks (Falcon® #35-5001) and maintained in growth medium [EMEM (Cellgro #10-010-CV); 10% fetal bovine serum (FBS; Gibco #16000-044); and 50 I.U./ml of penicillin-streptomycin (Cellgro #30-001-CI)] at 37° C. and under 5% CO2.
Cells obtained from Rat-1 fibroblast cultures at 30-50% of confluence as described above were co-transfected with vectors containing the selection marker for resistance to zeocin for a stable transfection and a luciferase reporter gene controlled by the mPer-1 promoter. After 24 to 48 hours, the cultures were divided on 96-well plates and maintained in growth medium supplemented with 50-100 μg/ml of zeocin (Invitrogen® #45-0430) for 10-14 days. The zeocin-resistant stable transfectants were evaluated for the expression of the reporter by adding 100 μM lucerfin (Promega® #E1603®) to the growth medium and by assaying the luciferase activity on a TopCount® scintillation counter (Packard Model #C384V00). The Rat-1 cell clones expressing both zeocin resistance and lucerifase activity controlled by mPer1 were serum-shock synchronized with 50% horse serum [HS (Gibco® #16050-122)] and the activity of the circadian reporter was evaluated. The P2C4 clone of Mper1-luc Rat-1 fibroblasts was selected to test the compound.
Mper1-luc Rat-1 (P2C4) fibroblasts at 40-50% of confluence, obtained according to the protocol described above, were plated out onto 96-well opaque tissue culture plates (Perkin Elmer® #6005680). The cultures are maintained in growth medium supplemented with 100 μg/ml of zeocin (Invitrogen #45-0430) until they reach 100% of confluence (48-72 h). The cultures were then synchronized with 100 μl of synchronization medium [EMEM (Cellgro #10-010-CV); 100 I.U./ml of penicillin-streptomycin (Cellgro #30-001-C1); 50% HS (Gibco #16050-122)] for 2 hours at 37° C. and under 5% CO2. After synchronization, the cultures were rinsed with 100 μl of EMEM (Cellgro #10-010-CV) for 10 minutes at ambient temperature. […]
The period analysis was performed either by determining the interval between the relative light emission minima over several days or by Fourier transform. […] The data were analyzed by adjusting a hyperbolic curve to the data expressed as change of period (y-axis) as a function of the concentration of the test compound (x-axis) in the XLfit™ software and the CE Delta (t+1 h) was interpolated from this curve.

In the case of CN1CCN(c2ccc3nc(-c4ccc(F)cc4)c(-c4ccnnc4)n3n2)CC1 [compound 5, 2-(4-fluorophenyl)-6-(4-methylpiperazin-1-yl)-3-pyridazin-4-yl-imidazo[1,2-b]pyridazine], the “CE Delta (t + 1 h)” value [1] is reported as 5 nM and the melting point is reported as 232 to 233 °C.
